Measured values published in publication PMC11585924, “Direct measurements of neurosteroid binding to specific sites on GABAA receptors” (British journal of pharmacology, 2024).
Values joined by “and” are separate entries in the source; they are usually repeats but may differ in a detail not shown here. Equal entries are not always repeated. “Also recorded” adds a separate entry of the source. Where two headings read alike, the source gives them in different places.

How the values were obtained:
ELIC-α1GABAAR [1] = target: T1, ELIC-α1GABAAR (Homo sapiens, UniProt P14867); assay type: binding
Protocol: Excitation and emission spectra were obtained using a FluoroMax Plus-C fluorometer (Horiba Instruments, Tokyo, Japan). For obtaining emission spectra, 280 nm was used as the excitation wavelength and emission was recorded from 300 to 450 nm. The excitation and emission slit widths used for obtaining emission spectra were 1 and 5 nm. For protein-ligand binding experiments, three emission spectra were obtained and averaged after each addition of a ligand or sodium iodide (NaI). The averaged spectra were smoothed using the Savitzky–Golay method before analysis.
One hundred microlitres of purified ELIC-α1GABAAR (0.3 μM in Buffer A + 0.015% DDM) was transferred into a 50-μl window quartz cuvette (Starna Cells, Atascadero, CA, USA), which was placed in a cuvette holder maintained at 4°C. […] Two microlitres of NaI (AK Scientific, Union City, CA, USA; 5-M stock prepared in 0.1-Mm sodium hydrosulfite [Sigma-Aldrich, St. Louis, MO, USA]) was added to the protein (final concentration = 100 mM) and incubated for 10 min to reduce the fluorescence emission from hydrophilic tryptophans. To measure the concentration–dependent effects of NS on tryptophan fluorescence, 1 μl of NS from each 100× stock solution was sequentially added to the NaI-equilibrated protein and thoroughly mixed to achieve concentrations from 0.01 to 50 μM. […]

ELIC-α1GABAAR [2] = target: T1, ELIC-α1GABAAR; assay type: binding; remark: listed apart in the source
Protocol: One hundred microlitres of ELIC-α1GABAAR (0.3 μM) was transferred into a 50-μl window quartz cuvette maintained at 4°C, and NaI was added to the protein sample to a final concentration of 100 mM and incubated for 10 min. MQ290 was then added at a concentration of 3 μM for 3α-OH NS inhibition curves or 1 μM for 3β-OH NS inhibition curves and incubated for 30 min. One-microlitre aliquots of 3α-OH and 3β-OH NS from their corresponding stock solutions (prepared in Buffer A + 0.015% DDM) were added to achieve concentrations between 0.01 and 30 μM. The background emission spectra of ligands alone were obtained for each ligand concentration in the absence of protein and were subtracted from the protein-ligand emission spectra to yield background subtracted data. The MQ290 FRET spectra for different ligand concentrations were estimated using the method described above. The 370-nm intensities of the FRET spectra were plotted against ligand concentration and fitted to a four-parameter logistic curve to obtain IC50 data (GraphPad Software version 9.4.0, San Diego, CA). Ki values were calculated using the relationship: Ki=IC50/1+LT/Kd
where LT is the concentration of MQ290 and Kd was determined from the MQ290 binding curve.

α1β3 GABAA receptors = target: T2, α1β3 GABAA receptors (Homo sapiens, UniProt P14867+P28472); test: Two-electrode voltage clamp of GABA-elicited currents in Xenopus oocytes; assay type: cell-based; details: for potentiation of GABA-elicited currents: low GABA, wild-type α1β3
T2 construct: expressed in transfected cells; host or cells: Xenopus laevis oocytes, cRNA injected 5:1 (α1:β3)
T2 sequence (P14867 28-456): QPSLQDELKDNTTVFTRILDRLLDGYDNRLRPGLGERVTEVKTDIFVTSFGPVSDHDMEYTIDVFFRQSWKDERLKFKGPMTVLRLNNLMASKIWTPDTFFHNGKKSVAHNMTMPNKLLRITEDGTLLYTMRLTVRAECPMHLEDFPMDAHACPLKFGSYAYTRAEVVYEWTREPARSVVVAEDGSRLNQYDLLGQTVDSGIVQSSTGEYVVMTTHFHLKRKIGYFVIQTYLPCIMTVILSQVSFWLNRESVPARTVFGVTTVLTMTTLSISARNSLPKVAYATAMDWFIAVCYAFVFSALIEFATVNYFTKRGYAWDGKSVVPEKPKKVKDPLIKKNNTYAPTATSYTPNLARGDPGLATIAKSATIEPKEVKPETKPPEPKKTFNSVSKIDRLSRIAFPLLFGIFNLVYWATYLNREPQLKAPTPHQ
T2 sequence (P28472 26-473): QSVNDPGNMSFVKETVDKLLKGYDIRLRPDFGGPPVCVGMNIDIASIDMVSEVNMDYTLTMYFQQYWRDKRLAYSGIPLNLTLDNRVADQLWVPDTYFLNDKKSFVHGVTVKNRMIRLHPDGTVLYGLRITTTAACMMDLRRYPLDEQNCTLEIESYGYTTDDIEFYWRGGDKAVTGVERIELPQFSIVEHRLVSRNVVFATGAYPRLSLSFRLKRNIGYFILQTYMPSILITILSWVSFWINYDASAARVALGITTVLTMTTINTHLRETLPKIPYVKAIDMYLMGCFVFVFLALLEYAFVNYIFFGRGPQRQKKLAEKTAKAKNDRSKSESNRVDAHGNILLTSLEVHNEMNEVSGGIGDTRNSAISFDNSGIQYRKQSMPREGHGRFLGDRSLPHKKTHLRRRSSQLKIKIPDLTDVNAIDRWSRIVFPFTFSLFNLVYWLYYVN
Protocol: (§1) Receptor expression and electrophysiological recordings were conducted as described in detail previously ([Sugasawa et al., 2020]). In brief, α1β3 GABAA receptors were expressed in oocytes from the African clawed frog (X. laevis). The wild-type α1 and β3 subunits were of human origin (Genbank accession numbers NM_000806.5 and NM_000814.5, respectively). The α1 clone containing the Q-to-L mutation to the classic neurosteroid binding site ([Hosie et al., 2006]) was of rat origin. (The glutamine residue in ELIC-α1GABAAR is Q242, whereas the corresponding residue in rat α1 is Q241. For simplicity, the residue is referred to as Q242 for both rat and ELIC-α1GABAAR.) The oocytes were purchased as quarter ovaries from Xenopus1 (Dexter, MI, USA). Following digestion in 2% w/v (mg·ml^−1) collagenase A, the oocytes were injected with a total of 12 ng cRNA per oocyte in a 5:1 ratio (α1:β3) and incubated at 15°C for 2–3 days prior to electrophysiological recordings in ND96 (96-mM NaCl, 2-mM KCl, 1.8-mM CaCl2, 1-mM MgCl2, 5-mM HEPES; pH 7.4) supplemented with 100 U·ml^−1 penicillin and 100 μg·ml^−1 streptomycin.
(§2) Electrophysiological recordings were conducted at ≈22°C using standard two-electrode voltage clamp. The voltage and current electrodes (G120F-4, OD = 1.20 mm, ID = 0.69 mm; Warner Instruments, Hamden, CT, USA) were filled with 3-M KCl and had resistances of 0.3–1 MΩ. The oocytes were clamped at −60 mV. The chamber (RC-1Z; Warner Instruments) was perfused with ND96 at 5–8 ml·min^−1. Solutions were gravity-applied. The current responses were amplified with an Axoclamp 900A (Molecular Devices, San Jose, CA, USA) or OC-725C amplifier (Warner Instruments), digitized with a Digidata 1200 series digitizer (Molecular Devices) and stored on PC hard drive using pClamp (Molecular Devices; RRID:SCR_011323). Current amplitudes were determined using Clampfit (Molecular Devices).
A standard experiment consisted of a several-minute long applications of GABA followed immediately by a co-application of GABA + modulator and a wash in GABA. For normalization purposes, each cell was exposed to the combination of saturating (1-mM) GABA + 50-μM propofol, assumed to fully activate all receptors in the cell ([Eaton et al., 2016]).

[3] = system: T3, α1^Q242Lβ3 GABAA receptors; test: Two-electrode voltage clamp, α1(Q242L) mutant receptors in Xenopus oocytes; assay type: cell-based, rat α1, human β3; details: low GABA; α1(Q242L)β3
T3 construct: expressed in transfected cells; host or cells: Xenopus laevis oocytes, cRNA injected 5:1 (α1:β3)
Protocol: as §1, §2
A standard experiment consisted of a several-minute long applications of GABA followed immediately by a co-application of GABA + modulator and a wash in GABA. […]

ELIC-α1^W246LGABAAR = ELIC-α1^W246LGABAAR (Homo sapiens, UniProt P14867, W273L); test: MQ290 FRET in W246L receptors; assay type: binding; details: W246L vs WT
Protocol: (§3) To monitor binding of MQ290 to ELIC-α1GABAAR, 100 μl of ELIC-α1GABAAR (0.3 μM) was transferred into a 50-μl window quartz cuvette that was placed in a cuvette holder. The temperature of the cuvette was maintained at 4°C. NaI (final concentration = 100 mM) was added to the protein sample and incubated for 10 min to reduce the emission of hydrophilic tryptophan residues. One-microlitre aliquots of 100× stock solutions of MQ290 (prepared in Buffer A + 0.015% DDM) were sequentially added to the protein sample and incubated for 30 min after each addition. Because MQ290 alone absorbs at 280 nm, emission spectrum (background spectrum) of MQ290 in the absence of protein was also obtained. The MQ290 background spectra were subtracted from the protein-MQ290 emission spectra to obtain the background-corrected spectra and were smoothened using the Savitzky–Golay method before analysis.
(§4) The ELIC-α1GABAAR emission spectrum obtained before the addition of MQ290 was used as the reference to estimate the contribution of ELIC-α1GABAAR tryptophan emission in the presence of MQ290. […] The calculated ELIC-α1GABAAR tryptophan emission spectrum was then subtracted from the background-corrected spectrum to obtain the emission spectrum of the signal resulting from energy transfer (FRET spectrum) from tryptophan to MQ290 (Figure S6). […]

ELIC-α1^Q242LGABAAR = test: MQ290 FRET in Q242L receptors; assay type: binding, human; details: Q242L vs WT
Protocol: as §3, §4

ELIC-α1GABAAR [4] = target: T1, ELIC-α1GABAAR; test: KK200 photolabelling competition, middle-down MS; assay type: binding; details: 3 μM KK200, 30 μM competitor
Protocol: The synthesis of the NS photolabelling reagent KK200 is detailed in previous reports ([W. W. L. Cheng et al., 2018]; [Jiang et al., 2016]). […] The samples were then irradiated in a quartz cuvette for 5 min, using a photoreactor emitting light at >320 nm ([Germann et al., 2021]). Sample preparation for tryptic digestion and analysis by LC–MS was performed as previously described ([Sugasawa et al., 2019]). Peptides were separated on a home-packed PLRP-S (Agilent, Santa Clara, CA, USA) column (10 cm × 75 μm, 300 Å) using a 135-min gradient from 10% to 90% acetonitrile and introduced to an Orbitrap-Elite mass spectrometer (Thermo Fisher Scientific, Waltham, MA, USA; RRID:SCR_020548) at 800 nl·min^−1 with a nanospray source. MS acquisition was set as an MS1 Orbitrap scan (resolution of 60,000) followed by top 20 MS2 Orbitrap scans (resolution of 15,000) using data-dependent acquisition and exclusion of singly charged precursors. Fragmentation was performed using high-energy dissociation with normalized energy of 35%. Analysis of data sets was performed using Xcalibur (Thermo Fisher Scientific, Waltham, MA, USA; RRID: SCR_014593) to manually search for TM1, TM2, TM3 or TM4 tryptic peptides with or without NS photolabelling modifications. Photolabelling efficiency was estimated by generating extracted chromatograms of unlabelled and labelled peptides, determining the area under the curve, and calculating the (area of labelled peptide/(area of unlabelled + area of labelled peptide). MS2 spectra of photolabelled TMD peptides were analysed by manual assignment of fragment ions with and without photolabelling modification.

T1 sequence (P14867 other isoform, or with tags, fused parts or gaps): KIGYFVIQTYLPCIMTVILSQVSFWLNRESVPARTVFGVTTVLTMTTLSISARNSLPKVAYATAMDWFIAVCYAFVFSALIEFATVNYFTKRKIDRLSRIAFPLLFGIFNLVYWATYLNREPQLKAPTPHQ
T1 sequence (P0C7B7 1-198, further chain): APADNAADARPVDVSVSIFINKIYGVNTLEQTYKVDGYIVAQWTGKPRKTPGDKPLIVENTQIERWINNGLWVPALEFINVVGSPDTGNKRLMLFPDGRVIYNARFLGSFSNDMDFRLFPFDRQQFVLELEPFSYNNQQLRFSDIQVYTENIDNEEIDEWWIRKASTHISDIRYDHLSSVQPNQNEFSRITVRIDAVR
Sequence of ELIC-α1^W246LGABAAR (P14867 other isoform, or with tags, fused parts or gaps W273L): as the sequence (P14867 other isoform, or with tags, fused parts or gaps) above, with W25L counted along it
Sequence of ELIC-α1^W246LGABAAR (P0C7B7 1-198, further chain): as the sequence (P0C7B7 1-198, further chain) above

SMILES	Hill slope (ELIC-α1GABAAR [2]; 3α-OH NS, MQ290 3 μM)	potentiation of GABA-elicited currents (α1β3 GABAA receptors)	potentiating effect with α1(Q242L) mutation [3]	Hill slope (ELIC-α1GABAAR [2]; 3β-OH NS, MQ290 1 μM)	further results
CO[C@H]1CCC2C3CC[C@H]4C[C@H](O)CC[C@]4(C)C3CC[C@@]21C (stereo partly drawn) [YX03]	−0.98 ± 0.37	enhances; also recorded: potentiates	blocked	–	prevention of AlloP induced quenching (ELIC-α1GABAAR [1]): partially prevents; quenching of ELIC-α1GABAAR tryptophan fluorescence (ELIC-α1GABAAR [1]; YX03 10 and 30 µM): absent; also recorded: does not quench
CC(=O)[C@H]1CC[C@H]2[C@@H]3CC[C@H]4C[C@](C)(O)CC[C@]4(C)[C@H]3CC[C@]12C [GX, ganaxolone]	−1.57 ± 0.26	–	–	–	–
CC(=O)[C@H]1CC[C@H]2[C@@H]3CC[C@@H]4C[C@H](O)CC[C@]4(C)[C@H]3CC[C@]12C [PREG, pregnanolone]	−1.02 ± 0.35	–	–	–	–
CC(=O)[C@H]1CCC2C3CC[C@@H]4C[C@@H](O)CC[C@]4(C)C3CC[C@@]21C (stereo partly drawn) [Epi-PREG, Epi-pregnanolone]	–	potentiates	prevented	−0.77 ± 0.42	–
CC(=O)[C@H]1CCC2C3CC[C@H]4C[C@@](C)(O)CC[C@]4(C)C3CC[C@@]21C (stereo partly drawn) [Epi-GX, epi-ganaxolone]	–	do not	–	−0.67 ± 0.30	–
CO[C@H]1CCC2C3=CC=C4C[C@H](O)CC[C@]4(C)C3=CC[C@@]21C (stereo partly drawn) [MQ290]	–	potentiates	eliminated	–	reduction of maximal MQ290 FRET signal in W246L receptors (ELIC-α1^W246LGABAAR): ~ 90% and 90%; MQ290 FRET signal in Q242L mutants (ELIC-α1^Q242LGABAAR): significantly reduced; prevention of KK200 photolabelling of TM3 (Y309) (ELIC-α1GABAAR [4]): significantly different than control; also recorded: prevented; EC50 (α1β3 GABAA receptors): 1 to 10 µM
